Measured values reported in patent US5721234A, “Glutamate receptor antagonists: fused cycloalkylouinoxalinediones” (Warner-Lambert Company, priority 1995, dated 1998).
Where a name gives a salt, the structure may show the parent alone.

Assays:
[1] = biological target: AMPA receptors; assay: AMPA receptor binding affinity (Honore et al.)
[2] = biological target: T1, glycine site of the NMDA receptor (Rattus norvegicus, UniProt P35439); assay: Glycine site of the NMDA receptor binding affinity (Jones et al.)
T1 construct: from tissue

[3] = biological target: kainate site (non-NMDA receptor); assay: Kainate site (non-NMDA receptor) binding affinity (London and Coyle)
[4] = tested on: AMPA-induced neuronal damage in primary cortical neuronal cultures; assay: AMPA-induced neuronal damage in primary cortical neuronal cultures, LDH release; format: cell-based; conditions: Table 1, cyclohexyl-fused analogs, long-term exposure to 100 μM AMPA
Protocol: To functionally measure AMPA antagonist activity, the effects of the agent on AMPA-induced neuronal damage in primary cortical neuronal cultures was examined using techniques similar to those outlined by Koh, J.-Y. et al., J. Neurosci, 1990; 10:693. The neuronal damage produced by long-term exposure to 100 μM AMPA was measured by the release of the cytosolic enzyme lactate dehydrogenase (LDH).
Selected compounds of the present invention were tested by one or more of the above-described assays. The IC50 values set forth in Tables 1 and 2 are a measure of the concentration (μM) of the test substance which inhibits 50% of an induced release from the tested receptors.

[5] = Table 1, cyclohexyl-fused analogs
[6] = Table 2, cyclopentyl-fused analogs

IC50 [1, 6] | IC50 [3, 6] | SMILES | also measured
0.4 µM | 0.9 µM | CC(=O)NC1Cc2c([N+](=O)[O-])cc3[nH]c(=O)c(=O)[nH]c3c2C1 (stereo not drawn) [Example 32, N-(6-nitro-2,3-dioxo-2,3,4,7,8,9-hexahydro-1H-cyclopenta[f]quinoxalin-8-yl)-acetamide] | IC50 [2, 6]: 1.3 µM
2.6 µM | 2.1 µM | NC1Cc2c([N+](=O)[O-])cc3[nH]c(=O)c(=O)[nH]c3c2C1 (stereo not drawn) [Example 38, 8-amino-6-nitro-4,7,8,9-tetrahydro-1H-cyclopenta[f]quinoxaline-2,3-dione hydrochloride] | 
0.05 µM | 0.18 µM | O=C(NC1Cc2c([N+](=O)[O-])cc3[nH]c(=O)c(=O)[nH]c3c2C1)c1cccs1 (stereo not drawn) [Example 54, Thiophene-2-carboxylic acid (6-nitro-2,3-dioxo-2,3,4,7,8,9-hexahydro-1H-cyclopenta[f]quinoxaline-8-yl)-amide] | IC50 [2, 6]: 0.3 µM
0.64 µM | 0.86 µM | O=C(NC1Cc2c([N+](=O)[O-])cc3[nH]c(=O)c(=O)[nH]c3c2C1)C1CCCN1 (stereo not drawn) [Example 64, Pyrrolidine-2-carboxylic acid (6-nitro-2,3-dioxo-2,3,4,7,8,9-hexahydro-1H-cyclopenta[f]quinoxalin-8-yl)-amide] | IC50 [2, 6]: > 1 µM
3.6 µM | 1.6 µM | CN(C(=O)c1cccs1)C1Cc2c([N+](=O)[O-])cc3[nH]c(=O)c(=O)[nH]c3c2C1 (stereo not drawn) [Example 67, Thiophene-2-carboxylic acid methyl-(6-nitro-2,3-dioxo-2,3,4,7,8,9-hexahydro-1H-cyclopenta[f]quinoxalin-8-yl)-amide] | 
7.4 µM | 1.9 µM | CN(C(=O)c1ccccc1)C1Cc2c([N+](=O)[O-])cc3[nH]c(=O)c(=O)[nH]c3c2C1 (stereo not drawn) [Example 68, N-Methyl-N-(6-nitro-2,3-dioxo-2,3,4,7,8,9-hexahydro-1H-cyclopenta[f]quinoxalin-8-yl)-benzamide] | 
0.42 µM | 1.6 µM | CN(C(=O)C1Cc2c([N+](=O)[O-])cc3[nH]c(=O)c(=O)[nH]c3c2C1)c1ccccc1 (stereo not drawn) [Example 69, 6-Nitro-2,3-dioxo-2,3,4,7,8,9-hexahydro-1H-cyclopenta[f]quinoxaline-8-carboxylic acid methyl-phenyl-amide] | IC50 [2, 6]: > 100 µM
0.42 µM | 1.9 µM | O=C(O)C1Cc2c([N+](=O)[O-])cc3[nH]c(=O)c(=O)[nH]c3c2C1 (stereo not drawn) [Example 78, 6-Nitro-2,3,-dioxo-2,3,4,7,8,9-hexahydro-1H-cyclopenta[f]quinoxaline-8-carboxylic acid] | IC50 [2, 6]: 14 µM
0.91 µM | 2.6 µM | CN(C)C1Cc2c([N+](=O)[O-])cc3[nH]c(=O)c(=O)[nH]c3c2C1 (stereo not drawn) [Example 90, 8-Dimethylamino-6-nitro-4,7,8,9-tetrahydro-1H-cyclopenta[f]quinoxaline-2,3-dione] | IC50 [2, 6]: 12 µM
1.2 µM | 2.2 µM | CNC1Cc2c([N+](=O)[O-])cc3[nH]c(=O)c(=O)[nH]c3c2C1 (stereo not drawn) [Example 100, 8-Methylamino-6-nitro-4,7,8,9-tetrahydro-1H-cyclopenta[f]quinoxaline-2,3-dione methane sulfonate salt] | 
2.2 µM | 2.2 µM | CC(=O)N(C)C1Cc2c([N+](=O)[O-])cc3[nH]c(=O)c(=O)[nH]c3c2C1 (stereo not drawn) [Example 105, N-Methyl-N-(6-nitro-2,3,-dioxo-2,3,4,7,8,9-hexahydro-1H-cyclopenta[f]quinoxaline-8-yl)acetamide] | 
5.1 µM | 5.4 µM | CCN(CC)C1Cc2c([N+](=O)[O-])cc3[nH]c(=O)c(=O)[nH]c3c2C1 (stereo not drawn) [Example 109, 8-Diethylamino-6-nitro-4,7,8,9,-tetrahydro-1H-cyclopenta[f]quinoxaline-2,3-dione] | 

Further lines, the molecule ahead of its results:

SMILES | IC50 [1, 6] | IC50 [3, 6] | also measured
O=c1[nH]c2cc(Br)c3c(c2[nH]c1=O)CC(O)CC3 (stereo not drawn) [Example 7, 6-bromo-9-hydroxy-1,4,7,8,9,10-hexahydro-benzo[f]quinoxaline-2,3-dione] |  |  | IC50 [1, 5]: 17 µM; IC50 [2, 5]: 1.5 µM; IC50 [3, 5]: 3 µM
O=c1[nH]c2cc(Br)c3c(c2[nH]c1=O)CC(OCc1ccccc1)CC3 (stereo not drawn) [Example 8, 9-benzyloxy-6-bromo-1,4,7,8,9,10-hexahydro-benzo[f]quinoxaline-2,3-dione] |  |  | IC50 [1, 5]: 14 µM; IC50 [3, 5]: > 100 µM
O=c1[nH]c2cc(Br)c3c(c2[nH]c1=O)CC(NCc1ccccc1)CC3 (stereo not drawn) [Example 19, 9-benzylamino-6-bromo-1,4,7,8,9,10-hexahydro-benzo[f]quinoxaline-2,3-dione] |  |  | IC50 [1, 5]: 25 µM; IC50 [2, 5]: > 100 µM; IC50 [3, 5]: > 100 µM
CC(=O)NC1Cc2cc(Br)c3[nH]c(=O)c(=O)[nH]c3c2C1 (stereo not drawn) [Example 28, N-(5-bromo-2,3-dioxo-2,3,4,7,8,9-hexahydro-1H-cyclopenta[f]quinoxalin-8-yl)-acetamide] | > 100 µM | > 100 µM | 
CC(=O)NC1Cc2c([N+](=O)[O-])c(Br)c3[nH]c(=O)c(=O)[nH]c3c2C1 (stereo not drawn) [Example 29, N-(5-bromo-6-nitro-2,3-dioxo-2,3,4,7,8,9-hexahydro-1H-cyclopenta[f]quinoxalin-8-yl)acetamide] | 5.1 µM |  | 
CC(=O)NC1Cc2ccc3[nH]c(=O)c(=O)[nH]c3c2C1 (stereo not drawn) [Example 30, N-(2,3-dioxo-2,3,4,7,8,9-hexahydro-1H-cyclopenta[f]quinoxalin-8-yl)-acetamide] | 25 µM | 87 µM | 
O=C(NC1Cc2c([N+](=O)[O-])cc3[nH]c(=O)c(=O)[nH]c3c2C1)C1CCNCC1 (stereo not drawn) [Example 35, 4-(6-nitro-2,3-dioxo-2,3,4,7,8,9-hexahydro-1H-cyclopenta[f]quinoxalin-8-ylcarbamoyl)piperidine hydrochloride] | 0.12 µM | 0.28 µM | IC50 [2, 6]: < 1 µM
O=C(NC1CCc2c([N+](=O)[O-])cc3[nH]c(=O)c(=O)[nH]c3c2C1)C1CCCCC1 (stereo not drawn) [Example 37, N-(6-nitro-2,3-dioxo-1,2,3,4,7,8,9,10-octahydrobenzo[f]quinoxalin9-yl)cyclohexylamide] |  |  | IC50 [4]: 28 µM; IC50 [2, 5]: 0.5 µM
O=C(CCc1ccc(O)cc1)NC1CCc2c([N+](=O)[O-])cc3[nH]c(=O)c(=O)[nH]c3c2C1 (stereo not drawn) [Example 41, 2-(6-nitro-2,3-dioxo-1,2,3,4,7,8,9,10-octahydrobenzo[f]quinoxaline-9-ylcarbamoyl)ethyl-(4-hydroxy)benzene] |  |  | IC50 [2, 5]: > 1 µM
O=C(Nc1ccccc1)NC1CCc2c([N+](=O)[O-])cc3[nH]c(=O)c(=O)[nH]c3c2C1 (stereo not drawn) [Example 42, N-phenyl-N'-(6-nitro-2,3-dioxo-1,2,3,4,7,8,9,10-octahydrobenzo[f]quinoxalin-9-yl)urea] |  |  | IC50 [1, 5]: 0.15 µM; IC50 [2, 5]: 0.18 µM; IC50 [3, 5]: 0.83 µM
CNC1CCc2c([N+](=O)[O-])cc3[nH]c(=O)c(=O)[nH]c3c2C1 (stereo not drawn) [Example 52, 9-Methylamino-6-nitro-1,4,7,8,9,10-hexahydrobenzo[f]quinoxaline-2,3-dione] |  |  | IC50 [1, 5]: 0.79 µM; IC50 [2, 5]: > 1 µM; IC50 [3, 5]: 2.8 µM
CN(C(=O)c1ccccc1)C1CCc2c([N+](=O)[O-])cc3[nH]c(=O)c(=O)[nH]c3c2C1 (stereo not drawn) [Example 53, N-Methyl-N-(6-nitro-2,3-dioxo-1,2,3,4,7,8,9,10-octahydro-benzo[f]quinoxalin-9-yl)-benzamide] |  |  | IC50 [1, 5]: 1.1 µM; IC50 [3, 5]: 1.6 µM
O=C(NC1Cc2c([N+](=O)[O-])cc3[nH]c(=O)c(=O)[nH]c3c2C1)c1ccccn1 (stereo not drawn) [Example 62, Pyridine-2-carboxylic acid (6-nitro-2,3-dioxo-2,3,4,7,8,9-hexahydro-1H-cyclopenta[f]quinoxalin-8-yl)-amide] | 0.56 µM | 1.9 µM | IC50 [2, 6]: > 1 µM
O=C(NC1Cc2c([N+](=O)[O-])cc3[nH]c(=O)c(=O)[nH]c3c2C1)c1cc2ccccc2s1 (stereo not drawn) [Example 65, Benzo[b]thiophene-2-carboxylic acid (6-nitro-2,3,-dioxo-2,3,4,7,8,9-hexahydro-1H-cyclopenta[f]quinoxalin-8-yl)-amide] | 1.3 µM | 8.1 µM | 
O=C(Nc1ccccc1)C1Cc2c([N+](=O)[O-])cc3[nH]c(=O)c(=O)[nH]c3c2C1 (stereo not drawn) [Example 80, 6-Nitro-2,3,-dioxo-2,3,4,7,8,9-hexahydro-1H-cyclopenta[f]quinoxaline-8-carboxylic acid phenylamide] | 1.6 µM | 3.9 µM | 
O=c1[nH]c2cc([N+](=O)[O-])c3c(c2[nH]c1=O)CC(N1CCCC1)CC3 (stereo not drawn) [Example 86, 6-Nitro-9-pyrrolidin-1-yl-1,4,7,8,9,10-hexahydro-benzo[f]quinoxaline-2,3-dione] |  |  | IC50 [1, 5]: 2.2 µM; IC50 [3, 5]: 3.8 µM
O=C(CN(CCO)CCO)NC1Cc2c([N+](=O)[O-])cc3[nH]c(=O)c(=O)[nH]c3c2C1 (stereo not drawn) [Example 101, 2-[Bis-(2-hydroxy-ethyl)-amino]-N-(6-nitro-2,3-dioxo-2,3,4,7,8,9-hexahydro-1H-cyclopenta[f]quinoxalin-8-yl)-acetamide] | 1.1 µM | 1.4 µM | 
O=c1[nH]c2cc([N+](=O)[O-])c3c(c2[nH]c1=O)CC(N1CCCC1)C3 (stereo not drawn) [Example 104, 6-Nitro-8-pyrrolidin-1-yl-4,7,8,9-tetrahydro-1H-cyclopenta[f]quinoxaline-2,3-dione] | 1.5 µM | 2.2 µM | 
O=c1[nH]c2cc([N+](=O)[O-])c3c(c2[nH]c1=O)CC(N1CCCCC1)C3 (stereo not drawn) [Example 108, 6-Nitro-8-piperidin-1-yl-4,7,8,9-tetrahydro-1H-cyclopenta[f]quinoxaline-2,3-dione] | 3.4 µM | 1.6 µM | 
